Test results: ChEMBL document CHEMBL1145858, “Synthesis and structure-activity studies of novel orally active non-terpenoic 2,3-oxidosqualene cyclase inhibitors” (J Med Chem, 2003)

Columns and labels:
Lanosterol synthase [1] = target: T1, Lanosterol synthase (Homo sapiens, UniProt P48449)
T1 sequence (P48449 whole entry): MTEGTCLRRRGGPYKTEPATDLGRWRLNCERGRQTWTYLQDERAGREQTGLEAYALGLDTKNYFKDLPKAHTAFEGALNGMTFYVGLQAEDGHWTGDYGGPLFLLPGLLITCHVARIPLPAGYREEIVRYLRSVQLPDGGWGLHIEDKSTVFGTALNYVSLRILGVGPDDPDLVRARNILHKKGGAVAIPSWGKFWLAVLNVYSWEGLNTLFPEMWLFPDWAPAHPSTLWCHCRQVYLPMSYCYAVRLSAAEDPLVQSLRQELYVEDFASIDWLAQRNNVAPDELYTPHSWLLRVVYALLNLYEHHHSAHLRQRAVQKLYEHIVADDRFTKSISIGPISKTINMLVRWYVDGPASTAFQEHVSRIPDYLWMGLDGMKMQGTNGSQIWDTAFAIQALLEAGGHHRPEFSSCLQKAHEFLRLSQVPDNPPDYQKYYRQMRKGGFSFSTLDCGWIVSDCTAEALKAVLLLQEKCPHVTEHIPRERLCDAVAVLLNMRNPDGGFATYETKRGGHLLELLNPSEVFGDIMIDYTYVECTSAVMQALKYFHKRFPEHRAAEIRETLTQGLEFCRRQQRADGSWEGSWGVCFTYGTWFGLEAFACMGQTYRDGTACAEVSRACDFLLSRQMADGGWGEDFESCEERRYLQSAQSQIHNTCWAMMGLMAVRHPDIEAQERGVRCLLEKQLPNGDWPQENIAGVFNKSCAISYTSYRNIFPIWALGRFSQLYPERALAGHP

Cricetinae gen. sp. [2] = test: […] effect on LDL cholesterol (LDL-C) level in fat-fed hamsters treated for 10 days at 200 umol/kg/day; format: functional, Cricetulus griseus
Cricetinae gen. sp. [3] = test: […] effect on total plasma cholesterol(TC) level in fat-fed hamsters treated for 10 days at 200 umol/kg/day; format: functional, Cricetulus griseus
[4] = target: T2, Lanosterol synthase (Homo sapiens) (UniProt P48449); settings: at 100 nM
T2 sequence (whole entry): T1 sequence (P48449 whole entry)

Lanosterol synthase [5] = target: T1, Lanosterol synthase; test: In vitro inhibition of human 2,3-oxidosqualene cyclase.

Row | SMILES | IC50 (Lanosterol synthase [1]) [nM] | LDL-C (Cricetinae gen. sp. [2]) [%] | further results
1 | Br.C=CCN(C)CCCCCCOc1ccc(C(=O)c2ccccc2)cc1 | 22.5 | -12 | 
2 | C=CCN(C)CCCCCCOc1ccc(C(=O)c2ccc(Br)cc2)c(F)c1.O=C(O)/C=C/C(=O)O |  | -27 | TC (Cricetinae gen. sp. [3]): -41%
3 | C=CCN(C)CCCCCCOc1ccc(-c2nsc3cc(Br)ccc23)cc1 |  |  | inhibition [4]: 5%
4 | C=CCN(C)CCCCCCOc1ccc2c(-c3ccc(Br)cc3)nccc2c1.Cl |  | -14 | 
5 | CN(CCCCCCOc1ccc(C(=O)c2ccc(Br)cc2)cc1)C1CC1 | 35.3 |  | pKa (physchem): 7.48
6 | C=CCN(C)CCCCCCOc1ccc(C(=O)c2ccc(F)cc2)cc1.Cl | 6.7 | -24 | TC (Cricetinae gen. sp. [3]): -40%
7 | C=CCN(C)CCCCCCOc1ccc2c(-c3ccc(Br)cc3)coc2c1 |  |  | inhibition [4]: 14%
8 | C=CCN(C)CCCCCCOc1ccc2c(-c3ccc(Br)cc3)nsc2c1.O=C(O)/C=C/C(=O)O |  | -33 | TC (Cricetinae gen. sp. [3]): -36%
9 | C=CCN(C)CCCCCCOc1ccc2c(c1)S(=O)(=O)N=C2c1ccc(Br)cc1 | 7.8 |  | 
10 | CN(CCCCCCOc1ccc(C(=O)c2ccc(Br)cc2)cc1)CC1CC1 |  |  | pKa (physchem): 9.37
11 | C=CCN(C)CCCCCCOc1ccc(C(=O)c2ccc(Br)cc2)cc1.O=C(O)/C=C/C(=O)O |  | -25 | TC (Cricetinae gen. sp. [3]): -27%; pKa (physchem): 8.18
12 | C=CCN(C)CCCCCCOc1ccc(C(=O)c2ccc([N+](=O)[O-])cc2)cc1 |  |  | IC50 (Lanosterol synthase [5]): 1.9 nM
13 | C=CCN(C)CCCCCCOc1ccc2c(c1)CON=C2c1ccc(Br)cc1.O=C(O)/C=C/C(=O)O |  | -3 | 
14 | C=CCN(C)CCCCCCOc1ccc2c(-c3ccc(Br)cc3)noc2c1 |  |  | inhibition [4]: 21%

Further lines, with some results ahead:

Row | IC50 (Lanosterol synthase [1]) [nM] | SMILES | LDL-C (Cricetinae gen. sp. [2]) [%] | further results
15 | 6.2 | C=CCN(C)CCCCCCOc1ccc(C(=O)c2ccc(Br)cc2)c(SC)c1 |  | 
16 | 8.7 | C=CCN(C)CCCCCCOc1ccc(C(=O)c2ccc(Br)cc2)cn1 |  | 
17 | 11.4 | C=CCN(C)CCCCCCOc1ccc2c(c1)OCC=C2c1ccc(Br)cc1 |  | 
18 | 4.1 | C=CCN(C)CCCCCCOc1ccc(C(=O)c2ccc(Br)cc2)c(NC)c1 |  | 
19 | 4.6 | C=CCN(C)CCCCCCOc1ccc(C(=O)c2ccc(Br)cc2)c(OC)c1 |  | 
20 | 6.3 | C=CCN(C)CCCCCCOc1ccc(C(=O)c2ccc(Br)cc2)c(O)c1 |  | 
21 | 15.7 | CN(CCCO)CCCCCCOc1ccc(C(=O)c2ccc(Br)cc2)cc1 |  | pKa (physchem): 9.05
22 | 5.6 | C=CCN(C)CCCCCCOc1ccc2c(-c3ccc(Br)cc3)csc2c1 |  | 
23 | 7.9 | C=CCN(C)CCCCCCOc1ccc2c(c1)CCN=C2c1ccc(Br)cc1 |  | 
